One experiment concerns VEGF. Description: VEGF protein ELISA in Hep3B cell-conditioned medium. The format is cell-based, human. As to conditions: Hep3B cells, hypoxic, 24 hours, versus untreated hypoxic cells (P<0.001). The protocol:
FIG. 3 is a histogram showing the amount of VEGF protein. […] The VEGF concentrations were quantified by comparison with a series of VEGF standard samples included in the assay kit. VEGF level in each experiment was measured twice. Bars represent the mean of four separate experiments with the 95% confidence interval. * denotes statistical significance compared to control supernatants from cells cultured under normoxic conditions (P<0.001); # denotes statistical significance compared to control supernatants from cells cultured under hypoxic conditions (P<0.00 1).
Immunoblotting was used to detect HIF-1 protein in cultured cells, as described (Chun et al., Biochem Pharmacol 2001 61:947-954). […] To quantify mRNAs for HIF-1α and HIF-1-regulated genes, we performed a highly sensitive, semi-quantitative reverse transcription-polymerase chain reaction (RT PCR), as described previously (Chun et al., J Cell Sci 2001 114:4051-4061). […] P-actin mRNA was measured as a PCR control. […] To assess whether the VEGF mRNA levels affected levels of VEGF protein secreted into the medium, we measured VEGF protein levels in Hep3B cell-conditioned medium. […] VEGF levels in the conditioned media were quantified by using the Quantikine human VEGF Immunoassay kit (R&D Systems, Minneapolis, Minn.) according to the manufacturer's recommended protocol. […]
A general note: An ELISA detects its analyte on a solid surface through an enzyme-linked reagent.

A further experiment deals with SK-N-MC neuroblastoma. Description: SK-N-MC neuroblastoma xenograft tumor growth in nude mice. The format is in vivo. Conditions: YC-1 30 μg/g daily i.p. 2 weeks, P<0.01. The protocol: Male nude mice were injected subcutaneously in the flank with 5×10^6 viable Hep3B hepatoma (A), NCI-H87 gastric carcinoma (B), SiHa cervical carcinoma (C), SK-N-MC neuroblastoma (E), or Caki-I renal carcinoma (F) cells. […] Tumor size was measured over time. […] Differences between tumor sizes in the vehicle- and YC-1-treated groups for mice with Hep3B tumors were compared using ANOVA and Duncan's multiple range tests. * denotes P<0.001 relative to the control. Differences between tumor sizes in the vehicle and YC-1-treated groups for mice with other tumors (B-E) were compared using a Mann-Whitney U test. Each number beneath the error bar represents the P value of the difference relative to the control.
Male nude (BALB/cAnNC˜-nu/nu) mice were purchased from Charles River Japan Inc. (Shin-Yokohama, JAPAN). The animals were housed in a specific pathogen-free room under controlled temperature and humidity. All animal procedures were performed according to the established procedures of the Seoul National University Laboratory Animal Maintenance Manual. Eighty mice aged 7-8 weeks were injected with tumor cells for the xenograft experiments. […]
Tumors were measured every 2 or 3 days with calipers in two dimensions and the tumor volumes were calculated using the formula: Volume=axb2/2, where a is the width at the widest point of the tumor and h is the width perpendicular to a. […]

This note sets out measurements from patent US20050096370A1, “Method for inhibiting tumor angiogenesis and tumor growth” (Bizbiotech Co., Ltd., priority 2003, published 2005).

Turning to `OCc1ccc(-c2nn(Cc3ccccc3)c3ccccc23)o1` [YC-1, 3-(5′-hydroxymethyl-2′-furyl)-1-benzylindazole], the “VEGF protein level in medium” value in the experiment on VEGF is reported as “decreased in a dose-dependent manner”. For the same molecule, in the experiment on SK-N-MC neuroblastoma, the “tumor size versus vehicle” value is listed as “statistically significantly smaller”.
